Measured values published in US11738082B2, “High concentration protein formulations with reduced viscosity” (Bhami's Research Laboratory, Pvt. Ltd., priority 2017, dated 2023).

Tests used:
Rituximab (RITUXAN®) [1] = assay: Percent reduction in aggregation of Rituximab by Size Exclusion Chromatography; assay type: physicochemical; conditions: with nicotinic acid and tryptophan, 250-275 mg/mL, versus control at 0 time point = 100%
Procedure: To the buffered antibody solutions, different aggregation reducing-agents were added individually or in combination and mixed until complete dissolution. […] The collected protein sample was stored at 4° C. […] The amount of reduction in aggregation is calculated setting the values at 0 time point equal to 100% in control (without any aggregation-reducing agent) and the reduction in aggregation in test samples (with aggregation-reducing agent) is expressed as percent reduction when compared to control at 0 time point.

Rituximab (RITUXAN®) [2] = assay: Size Exclusion Chromatography of formulated Rituximab on storage; assay type: physicochemical; conditions: storage at 25° C., formulated with tryptophan + nicotinic acid (acid form), 250 mg/mL, SEC
Procedure: The collected protein sample was stored at 4° C. […] The protein concentrations were experimentally determined using the extinction coefficient of 1.7

Etanercept (ENBREL®) = target: T1, Etanercept (ENBREL®) (Homo sapiens, UniProt P20333); assay: Viscosity of Etanercept solutions (VISCOlab5000 or DV2T cone and plate viscometer); assay type: physicochemical; conditions: for Viscosity, cP: 25 mM phosphate buffer pH 6.0, 25° C.
T1 construct: purchased ENBREL®
T1 sequence (P20333 with tags, fused parts or gaps limits assumed): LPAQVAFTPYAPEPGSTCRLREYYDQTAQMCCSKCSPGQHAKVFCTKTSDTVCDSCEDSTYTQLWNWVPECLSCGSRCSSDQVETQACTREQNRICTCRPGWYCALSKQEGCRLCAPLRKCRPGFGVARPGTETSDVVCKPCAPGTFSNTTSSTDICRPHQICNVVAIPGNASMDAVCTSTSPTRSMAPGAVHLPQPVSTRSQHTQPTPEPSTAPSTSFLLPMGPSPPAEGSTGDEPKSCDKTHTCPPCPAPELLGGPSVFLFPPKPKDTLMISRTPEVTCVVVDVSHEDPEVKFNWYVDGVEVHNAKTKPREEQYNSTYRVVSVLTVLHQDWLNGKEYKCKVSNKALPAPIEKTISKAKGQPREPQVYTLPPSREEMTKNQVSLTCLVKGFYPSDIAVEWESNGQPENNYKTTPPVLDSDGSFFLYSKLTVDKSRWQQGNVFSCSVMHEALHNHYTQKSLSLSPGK
Procedure: Commercially obtained Etanercept, ENBREL®, 25 mg as a lyophilized powder (25 mg Etanercept, 40 mg mannitol, 10 mg sucrose, and 1.2 mg Tromethamine and for reconstitution 0.9% benzyl alcohol in water) was dialyzed against 25 mM phosphate buffer, pH 6.0 for 24 hr at 4° C. with three changes. To the dialysed Etanercept different viscosity-reducing agent(s) was added individually or in combination and mixed until complete dissolution. […] The collected protein sample was stored at 4° C.
[formula] at 280 nm. […] Results
Commercially obtained Etanercept, ENBREL®, 25 mg as a lyophilized powder (25 mg Etanercept, 40 mg mannitol, 10 mg sucrose, and 1.2 mg Tromethamine and for reconstitution 0.9% benzyl alcohol in water) was dialyzed against 25 mM phosphate buffer, pH 6.0 for 24 hr at 4° C. with three changes.
To the dialysed samples of above protein agents, a combination of viscosity-reducing agents nicotinic acid (acid form) and tryptophan were added and mixed until complete dissolution. […] The collected protein samples were stored at 4° C.

[3] = test system: Human Gamma Globulin (HGG), GLOBUCEL®; assay: Viscosity of aqueous solutions of Human Gamma Globulin (Cambridge VISCOlab5000 or DV2T cone and plate viscometer)
Procedure: Commercially obtained human gamma globulin (HGG), GLOBUCEL® (50 mg/mL) containing pharmaceutical excipients (Maltose) was dialyzed against water for 24 hr at 4° C. with three changes. To the aqueous solution of HGG, either histidine or phosphate or citrate buffer was added from the stock concentration of 1000 mM for histidine buffer or 1000 mM for citrate buffer or 1000 mM for phosphate buffer, pH 6.0 to get a final concentration of 25 mM each. The HGG solutions in various buffers were concentrated to a final volume of less than 150 μL using Vivaspin centrifugal concentrators (Sartorius). The collected protein sample was stored at 4° C. […] The protein concentrations were experimentally determined using the extinction coefficient of 1.4
[formula] at 280 nm. The viscosities of the solution were measured either using a Cambridge Viscometer, VISCOlab5000 using 70 μL of sample at 25° C. or using a DV2T cone and plate viscometer using 1.5 mL of sample at 25° C. at extrapolated zero shear rate.
Commercially obtained human gamma globulin (HGG), GLOBUCEL® (50 mg/mL) containing pharmaceutical excipients (Maltose) was dialyzed against water for 24 hr at 4° C. with three changes. To the aqueous solution of HGG, either citrate-phosphate buffer pH 5.0 or citrate-phosphate buffer pH 6.0 or citrate-phosphate buffer pH 7.0 was added from the stock concentration of 1000 mM for citrate buffer at pH 5.0 or pH 6.0 or pH 7.0 to get a final concentration of 25 mM each. The HGG solutions in various pH buffers were concentrated to a final volume of less than 150 μL using Vivaspin centrifugal concentrators (Sartorius). The collected protein sample was stored at 4° C. […] The protein concentrations were experimentally determined using the extinction coefficient of 1.4
Commercially obtained human gamma globulin (HGG), GLOBUCEL® (50 mg/mL) containing pharmaceutical excipients (Maltose) was dialyzed against water for 24 hr at 4° C. with three changes. To the aqueous solution of HGG, phosphate/citrate/histidine Buffer was added from the stock concentration of 1000 mM phosphate/citrate/histidine buffer, pH 6.0 to get a final concentration of 25 mM. To the buffered HGG different amino acid or its derivative was added individually and mixed until complete dissolution. The excipient containing HGG was concentrated to a final volume of less than 150 μL using Vivaspin centrifugal concentrators (Sartorius). The collected protein sample was stored at 4° C. […] The protein concentrations were experimentally determined using the extinction coefficient of 1.4
Commercially obtained human gamma globulin (HGG), GLOBUCEL® (50 mg/mL) containing pharmaceutical excipients (Maltose) was dialyzed against water for 24 hr at 4° C. with three changes. To the aqueous solution of HGG, phosphate/citrate/histidine Buffer was added from the stock concentration of 1000 mM phosphate/citrate/histidine buffer, pH 6.0 to get a final concentration of 25 mM. To the buffered HGG, different nucleosides or nucleotides or its derivative was added individually and mixed until complete dissolution. The excipient containing HGG was concentrated to a final volume of less than 150 μL using Vivaspin centrifugal concentrators (Sartorius). The collected protein sample was stored at 4° C.

Bevacizumab (AVASTIN®) = assay: Size Exclusion Chromatography of formulated Bevacizumab on storage; assay type: physicochemical; conditions: storage at 25° C., formulated with tryptophan + nicotinic acid (acid form), SEC
Procedure: The collected protein sample was stored at 4° C. […] Reported protein concentrations represent the range of all protein samples in each Table or Figure. Specifically, reported values are the median plus or minus half the range. The protein concentrations were experimentally determined using the extinction coefficient of 1.54

[4] = HGG 220 mg/mL, excipient 10 mg/mL, histidine buffer pH 6.0, 25° C.
[5] = HGG 220 mg/mL, excipient 10 mg/mL, phosphate buffer pH 6.0, 25° C.

Compound: Rituximab: Commercially obtained Rituximab, RITUXAN®, dialyzed against 25 mM phosphate buffer, pH 6.0
- Percent reduction in aggregation (Rituximab (RITUXAN®) [1]; After 24 hours): 90%
- Percent reduction in aggregation (Rituximab (RITUXAN®) [1]; After 48 hours): 100%
- Aggregation peak area (%) (Rituximab (RITUXAN®) [2]; 0 day): 1.027%
- Degradation peak area (%) (Rituximab (RITUXAN®) [2]; 0 day): Nil
- Aggregation peak area (%) (Rituximab (RITUXAN®) [2]; 7 days): 0.96%
- Degradation peak area (%) (Rituximab (RITUXAN®) [2]; 7 days): Nil

Compound: Etanercept
- Viscosity, cP (Etanercept (ENBREL®); Etanercept 50 mg/mL, with 10 mg/mL nicotinic acid (acid form) + 6 mg/mL tryptophan): 2 cP
- Viscosity, cP (Etanercept (ENBREL®); Etanercept 50 mg/mL, without excipient): 35 cP
- Viscosity, cP (Etanercept (ENBREL®); Etanercept 100 mg/mL, with 10 mg/mL nicotinic acid (acid form) + 6 mg/mL tryptophan): 3 cP
- Viscosity, cP (Etanercept (ENBREL®); Etanercept 100 mg/mL, without excipient): 72 cP
- Viscosity, cP (Etanercept (ENBREL®); Etanercept 150 mg/mL, with 10 mg/mL nicotinic acid (acid form) + 6 mg/mL tryptophan): 11 cP
- Viscosity, cP (Etanercept (ENBREL®); Etanercept 150 mg/mL, without excipient): 135 cP
- Viscosity, cP (Etanercept (ENBREL®); Etanercept 175 mg/mL, with 10 mg/mL nicotinic acid (acid form) + 6 mg/mL tryptophan): 17 cP
- Viscosity, cP (Etanercept (ENBREL®); Etanercept 175 mg/mL, without excipient): 160 cP
- Viscosity, cP (Etanercept (ENBREL®); Etanercept 200 mg/mL, with 10 mg/mL nicotinic acid (acid form) + 6 mg/mL tryptophan): 23 cP
- Viscosity, cP (Etanercept (ENBREL®); Etanercept 200 mg/mL, without excipient): 230 cP
- Viscosity, cP (Etanercept (ENBREL®); Etanercept 225 mg/mL, with 10 mg/mL nicotinic acid (acid form) + 6 mg/mL tryptophan): 40 cP
- Viscosity, cP (Etanercept (ENBREL®); Etanercept 225 mg/mL, without excipient): 345 cP
- Viscosity, cP (Etanercept (ENBREL®); Etanercept 250 mg/mL, with 10 mg/mL nicotinic acid (acid form) + 6 mg/mL tryptophan): 65 cP
- Viscosity, cP (Etanercept (ENBREL®); Etanercept 250 mg/mL, without excipient): 439 cP
- Viscosity, cP (Etanercept (ENBREL®); Etanercept 275 mg/mL, with 10 mg/mL nicotinic acid (acid form) + 6 mg/mL tryptophan): 77 cP
- Viscosity, cP (Etanercept (ENBREL®); Etanercept 275 mg/mL, without excipient): 1130 cP
- Viscosity, cP (Etanercept (ENBREL®); Etanercept 300 mg/mL, with 10 mg/mL nicotinic acid (acid form) + 6 mg/mL tryptophan): 139 cP
- magnitude of viscosity-reducing effects (Etanercept (ENBREL®); Etanercept 275±10 mg/mL, nicotinic acid (acid form) and tryptophan added to phosphate buffer): 14.6 fold

Compound: C[S+](C)[O-] [DMSO]
- Viscosity (cP) @ 25° C. ([3]; HGG 204 mg/mL, excipient 5%, 25 mM phosphate buffer pH 6.0): 121 cP
- Viscosity (cP) @ 25° C. ([3]; HGG […], excipient 5%, 25 mM citrate buffer pH 6.0): 28 cP

Compound: CC(=O)[O-].[K+] [Potassium acetate]
- Viscosity (cP) @ 25° C. ([3]; HGG 228 mg/mL, excipient 40 mg/mL (408 mM), 25 mM phosphate buffer pH 6.0): 172 cP

Compound: O=C([O-])c1cccnc1.[Na+] [Nicotinic acid Sodium Salt]
- Viscosity (cP) @ 25° C. ([3]; HGG 202 mg/mL, excipient 10 mg/mL (69 mM), 25 mM phosphate buffer pH 6.0): 29 cP
- Viscosity (cP) @ 25° C. ([3]; HGG 203 mg/mL, excipient 10 mg/mL (69 mM), 25 mM histidine buffer pH 6.0): 21 cP
- Viscosity, cP [3, 4]: 81 cP
- Viscosity, cP [3, 5]: 95 cP
- Viscosity, cP ([3]; HGG 225 mg/mL (footnote), excipient 10 mg/mL, citrate buffer pH 6.0, 25° C.): 71^$ cP
- Viscosity (cP) @ 25° C. ([3]; HGG 225 mg/mL, excipient 10 mg/mL (69 mM), 25 mM phosphate buffer pH 6.0): 95 cP
- Viscosity (cP) @ 25° C. ([3]; HGG 235 mg/mL, excipient 10 mg/mL (69 mM), 25 mM histidine buffer pH 6.0): 140 cP
- Viscosity (cP) @ 25° C. ([3]; HGG 236 mg/mL, excipient […] (81 mM), 25 mM histidine buffer pH 6.0): 83 cP
- Viscosity (cP) @ 25° C. ([3]; HGG […], excipient 10 mg/mL (69 mM), 25 mM citrate buffer pH 6.0): 71 cP

Compound: N[C@@H](Cc1c[nH]c2ccccc12)C(=O)O [Tryptophan]
- Viscosity (cP) @ 25° C. ([3]; HGG 200 mg/mL, excipient 6 mg/mL (29 mM), 25 mM phosphate buffer pH 6.0): 14 cP
- Viscosity (cP) @ 25° C. ([3]; HGG 231 mg/mL, excipient 6 mg/mL (29 mM), 25 mM citrate buffer pH 6.0): 60 cP
- Viscosity (cP) @ 25° C. ([3]; HGG 243 mg/mL, excipient 6 mg/mL (29 mM), 25 mM phosphate buffer pH 6.0): 35 cP
- Viscosity (cP) @ 25° C. ([3]; HGG 256 mg/mL, excipient 6 mg/mL (29 mM), 25 mM histidine buffer pH 6.0): 18 cP

Compound: Bevacizumab: Commercially obtained Bevacizumab, AVASTIN®, dialyzed against 25 mM phosphate buffer, pH 6.0
- Degradation peak area (%) (Bevacizumab (AVASTIN®); 0 day): Nil
- Standard peak area (%) (Bevacizumab (AVASTIN®); 0 day): 99.39%
- Degradation peak area (%) (Bevacizumab (AVASTIN®); 7 days): Nil
- Standard peak area (%) (Bevacizumab (AVASTIN®); 7 days): 99.118%

Compound: OC[C@@H](O)[C@@H](O)[C@H](O)[C@@H](O)CO [D-sorbitol]
- Viscosity (cP) @ 25° C. ([3]; HGG 182 mg/mL, excipient 10 mg/mL (56 mM), 25 mM citrate buffer pH 6.0): 45 cP
- Viscosity (cP) @ 25° C. ([3]; HGG 240 mg/mL, excipient 10 mg/mL (56 mM), 25 mM phosphate buffer pH 6.0): 176 cP

Compound: C[C@H](N)C(=O)O [Alanine]
- Viscosity (cP) @ 25° C. ([3]; HGG 222 mg/mL, excipient 10 mg/mL (112 mM), 25 mM phosphate buffer pH 6.0): 112 cP

Compound: O=C(O)c1cccnc1 [Nicotinic acid (acid form)]
- Viscosity, cP ([3]; HGG 220 mg/mL, excipient 10 mg/mL, citrate buffer pH 6.0, 25° C.): 20 cP
- Viscosity, cP [3, 4]: 18 cP
- Viscosity, cP [3, 5]: 20 cP
- Viscosity (cP) @ 25° C. ([3]; HGG 231 mg/mL, excipient 10 mg/mL (81 mM), 25 mM histidine buffer pH 6.0): 23 cP
- Viscosity (cP) @ 25° C. ([3]; HGG 246 mg/mL, excipient 10 mg/mL (81 mM), 25 mM citrate buffer pH 6.0): 48 cP
- Viscosity (cP) @ 25° C. ([3]; HGG 250 mg/mL, excipient 10 mg/mL (81 mM), 25 mM phosphate buffer pH 6.0): 30 cP
- Viscosity, cP ([3]; HGG 260 mg/mL, nicotinic acid (acid form) 1 mg/mL, 25 mM histidine buffer pH 6.0, 25° C.): 85 cP
- Viscosity, cP ([3]; HGG 260 mg/mL, nicotinic acid (acid form) 5 mg/mL, 25 mM histidine buffer pH 6.0, 25° C.): 68 cP
- Viscosity, cP ([3]; HGG 260 mg/mL, nicotinic acid (acid form) 10 mg/mL, 25 mM histidine buffer pH 6.0, 25° C.): 52 cP
- Viscosity, cP ([3]; HGG 260 mg/mL, nicotinic acid (acid form) 15 mg/mL, 25 mM histidine buffer pH 6.0, 25° C.): 41 cP
- Viscosity, cP ([3]; HGG 274 mg/mL, in the presence of nicotinic acid (acid form), 25 mM histidine buffer pH 6.0, 20° C.): 63 cP
- Viscosity, cP ([3]; HGG 274 mg/mL, in the presence of nicotinic acid (acid form), 25 mM histidine buffer pH 6.0, 25° C.): 41 cP
- Viscosity, cP ([3]; HGG 274 mg/mL, in the presence of nicotinic acid (acid form), 25 mM histidine buffer pH 6.0, 30° C.): 35 cP
- Viscosity (cP) @ 25° C. ([3]; HGG 277 mg/mL, excipient 10 mg/mL (81 mM), 25 mM citrate buffer pH 6.0): 123 cP
- Viscosity (cP) @ 25° C. ([3]; HGG 342 mg/mL, excipient 10 mg/mL (81 mM), 25 mM histidine buffer pH 6.0): 178 cP
